Results taken from ChEMBL document CHEMBL1201862, “PubChem BioAssay data set” (2004).
Active and inactive are the calls of the source.

Tests used:
Galanin receptor type 3 = Galanin receptor type 3 (Homo sapiens, UniProt O60755); test: Fluorescence-based cell-based primary high throughput dose response assay to identify antagonists of the Galanin Receptor 3 (GalR3).; assay type: functional
cells [1] = assay type: functional, cell-based; conditions: HEK-CNG
CHO = CHO cell viability loss, potency – luminescence, cytotoxicity control for TLR9-MyD88 binding inhibitor project, dose response (AID 588339); assay type: functional, cell-based, hamster; conditions: Cricetulus griseus;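 also: CHO cells stably coexpressing TLR9 and MyD88 fusions from primary screen; compound exposure lasted 48 hours before viability readout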
Beta Lactamase = Beta Lactamase (Pseudomonas aeruginosa, UniProt Q932Y6); test: BLA reporter interference, concentration series – BLA reporter cells, FRET fluorescence, artefact control for TLR9-MyD88 binding inhibitor project, dose response (AID 588341); assay type: cell-based;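 also: cell based assay in CHO-K1 cells stably expressing beta-lactamase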
[2] = target: T1, Sentrin-specific protease 8 (Homo sapiens, UniProt Q96LD8); assay type: functional
T1 sequence (Q96LD8 whole entry): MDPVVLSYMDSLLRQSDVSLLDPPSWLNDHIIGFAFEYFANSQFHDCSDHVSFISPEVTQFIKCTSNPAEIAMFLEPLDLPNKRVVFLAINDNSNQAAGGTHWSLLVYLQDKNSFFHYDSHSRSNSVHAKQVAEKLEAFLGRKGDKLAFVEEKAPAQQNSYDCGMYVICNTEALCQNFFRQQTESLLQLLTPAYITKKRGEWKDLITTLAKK

[3] = target: T1, Sentrin-specific protease 8; assay type: functional; remark: listed apart in the source
Caspase-6 = target: T2, Caspase-6 (Homo sapiens, UniProt P55212); test: inhibition of CASP6 peptide cleavage – biochemical, VEID-R110 fluorescence, cherry-pick, dose response (AID 720632)
T2 sequence (P55212 whole entry): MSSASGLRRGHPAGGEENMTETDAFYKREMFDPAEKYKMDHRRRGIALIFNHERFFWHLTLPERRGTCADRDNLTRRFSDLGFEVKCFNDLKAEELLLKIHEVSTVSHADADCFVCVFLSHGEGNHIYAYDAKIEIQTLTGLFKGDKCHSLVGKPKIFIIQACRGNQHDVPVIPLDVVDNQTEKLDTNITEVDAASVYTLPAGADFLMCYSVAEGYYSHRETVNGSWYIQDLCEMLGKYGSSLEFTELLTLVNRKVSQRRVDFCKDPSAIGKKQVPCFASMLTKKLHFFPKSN

Streptokinase A = target: T3, Streptokinase A (Streptococcus pyogenes serotype M1, UniProt P10520); test: viability-normalized secreted streptokinase activity reduction – plasminogen activation absorbance, OD405, dose response (AID 1914); assay type: functional, Streptococcus pyogenes M1 GAS;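 also: secreted streptokinase activity via plasminogen activation per viability signal from cell pellet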
T3 sequence (P10520 whole entry): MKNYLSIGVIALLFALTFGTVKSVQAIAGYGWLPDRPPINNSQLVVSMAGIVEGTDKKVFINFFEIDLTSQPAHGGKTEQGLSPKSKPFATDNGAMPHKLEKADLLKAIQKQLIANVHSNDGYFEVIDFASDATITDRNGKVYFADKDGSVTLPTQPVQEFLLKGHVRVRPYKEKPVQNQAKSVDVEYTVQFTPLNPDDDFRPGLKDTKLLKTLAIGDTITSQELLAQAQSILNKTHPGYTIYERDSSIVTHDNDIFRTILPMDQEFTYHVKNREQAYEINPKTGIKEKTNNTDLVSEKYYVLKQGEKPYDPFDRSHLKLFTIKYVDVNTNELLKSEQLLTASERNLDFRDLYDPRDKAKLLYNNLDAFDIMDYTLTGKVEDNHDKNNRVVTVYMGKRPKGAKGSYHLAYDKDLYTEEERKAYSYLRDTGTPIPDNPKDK

[4] = target: T4, Apoptotic protease-activating factor 1 (Homo sapiens, UniProt O14727); assay type: functional
T4 sequence (O14727 whole entry): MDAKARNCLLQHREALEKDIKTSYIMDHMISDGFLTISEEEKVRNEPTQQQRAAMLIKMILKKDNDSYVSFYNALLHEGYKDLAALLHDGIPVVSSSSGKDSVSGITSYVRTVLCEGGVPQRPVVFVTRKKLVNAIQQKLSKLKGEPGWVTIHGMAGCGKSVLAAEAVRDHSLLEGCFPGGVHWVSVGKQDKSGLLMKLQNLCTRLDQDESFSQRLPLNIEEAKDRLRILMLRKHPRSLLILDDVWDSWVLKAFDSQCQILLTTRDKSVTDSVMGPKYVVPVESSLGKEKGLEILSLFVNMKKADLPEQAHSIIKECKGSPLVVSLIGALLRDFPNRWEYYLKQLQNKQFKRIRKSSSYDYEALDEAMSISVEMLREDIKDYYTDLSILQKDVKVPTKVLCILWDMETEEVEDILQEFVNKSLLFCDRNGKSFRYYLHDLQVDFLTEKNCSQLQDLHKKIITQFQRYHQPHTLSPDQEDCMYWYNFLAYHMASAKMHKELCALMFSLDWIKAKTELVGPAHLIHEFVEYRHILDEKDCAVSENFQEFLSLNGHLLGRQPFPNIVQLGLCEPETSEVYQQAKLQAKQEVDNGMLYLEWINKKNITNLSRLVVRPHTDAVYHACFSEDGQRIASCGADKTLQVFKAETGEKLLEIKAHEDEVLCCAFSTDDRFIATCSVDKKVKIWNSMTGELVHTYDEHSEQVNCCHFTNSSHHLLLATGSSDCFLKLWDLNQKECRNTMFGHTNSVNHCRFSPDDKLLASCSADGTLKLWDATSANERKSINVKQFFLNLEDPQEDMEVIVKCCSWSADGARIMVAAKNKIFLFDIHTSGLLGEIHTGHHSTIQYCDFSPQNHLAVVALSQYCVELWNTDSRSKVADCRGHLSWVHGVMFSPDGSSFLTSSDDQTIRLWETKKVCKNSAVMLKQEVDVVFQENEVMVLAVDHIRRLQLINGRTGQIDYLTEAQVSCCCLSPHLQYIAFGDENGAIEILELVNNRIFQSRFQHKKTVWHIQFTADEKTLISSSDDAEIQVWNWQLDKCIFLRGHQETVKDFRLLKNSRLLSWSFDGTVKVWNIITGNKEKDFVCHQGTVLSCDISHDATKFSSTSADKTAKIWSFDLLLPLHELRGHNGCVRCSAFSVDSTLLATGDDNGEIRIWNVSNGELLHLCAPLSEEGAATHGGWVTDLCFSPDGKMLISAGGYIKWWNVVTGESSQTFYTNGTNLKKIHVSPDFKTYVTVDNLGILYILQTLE

[5] = target: T5, Endoribonuclease toxin MazF (Escherichia coli K-12, UniProt P0AE70); test: activation of MazEF endoribonuclease cleavage – biochemical, fluorescence, single-stranded RNA substrate, uHTS hits, dose response (AID 588481); assay type: functional
T5 sequence (P0AE70 whole entry): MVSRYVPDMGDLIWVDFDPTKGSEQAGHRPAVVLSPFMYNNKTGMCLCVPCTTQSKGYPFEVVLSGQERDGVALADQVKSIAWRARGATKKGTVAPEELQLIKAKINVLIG

[6] = target: T5, Endoribonuclease toxin MazF; test: substrate-only fluorescence increase artefacts – biochemical, single-stranded RNase substrate, counter-screen for MazEF activator project, dose response (AID 588502); assay type: functional
[7] = target: T6, RNA-binding protein pos-1 (Caenorhabditis elegans, UniProt G5EF15); test: disruptors of C. elegans POS-1 RNA interaction – biochemical, fluorescence polarization, dose response (AID 1964);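 also: purified POS-1 fused to maltose binding protein made in E. coli; potency of compounds blocking POS-1 binding to fluorescent RNA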
T6 sequence (G5EF15 whole entry): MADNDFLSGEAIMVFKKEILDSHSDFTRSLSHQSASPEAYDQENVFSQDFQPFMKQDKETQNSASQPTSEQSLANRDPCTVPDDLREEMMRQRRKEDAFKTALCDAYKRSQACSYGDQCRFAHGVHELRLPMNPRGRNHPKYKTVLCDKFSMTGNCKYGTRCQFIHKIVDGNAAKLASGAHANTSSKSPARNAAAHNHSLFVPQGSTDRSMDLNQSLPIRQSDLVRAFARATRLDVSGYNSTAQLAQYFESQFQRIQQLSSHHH

[8] = target: T7, Zinc finger protein mex-5 (Caenorhabditis elegans, UniProt Q9XUB2); test: potency of MEX-5 RNA-binding blockers – biochemical, C. elegans, fluorescence polarization, dose response (AID 1960)
T7 sequence (Q9XUB2 whole entry): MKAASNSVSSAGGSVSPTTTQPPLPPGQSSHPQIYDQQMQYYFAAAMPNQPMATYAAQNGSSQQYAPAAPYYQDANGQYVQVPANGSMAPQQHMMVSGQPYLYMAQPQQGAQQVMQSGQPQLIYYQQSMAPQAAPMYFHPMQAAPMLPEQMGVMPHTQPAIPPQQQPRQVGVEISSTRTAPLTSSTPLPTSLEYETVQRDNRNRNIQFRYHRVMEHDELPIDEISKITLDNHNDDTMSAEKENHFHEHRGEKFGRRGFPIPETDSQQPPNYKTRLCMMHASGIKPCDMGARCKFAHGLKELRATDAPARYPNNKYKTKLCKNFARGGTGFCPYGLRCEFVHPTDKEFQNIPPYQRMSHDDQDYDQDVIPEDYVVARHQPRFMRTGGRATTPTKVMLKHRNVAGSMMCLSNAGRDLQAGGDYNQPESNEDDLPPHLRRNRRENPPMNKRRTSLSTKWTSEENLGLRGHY

[9] = target: T8, Corticotropin-releasing factor receptor 2/Corticotropin-releasing factor-binding protein (Homo sapiens, UniProt P24387+Q13324); test: activators of CRF receptor 2 with binding protein – uHTS hits, confirmation (AID 602473); assay type: functional; conditions: read-out: EC50_Mean
T8 sequence (Q13324 whole entry): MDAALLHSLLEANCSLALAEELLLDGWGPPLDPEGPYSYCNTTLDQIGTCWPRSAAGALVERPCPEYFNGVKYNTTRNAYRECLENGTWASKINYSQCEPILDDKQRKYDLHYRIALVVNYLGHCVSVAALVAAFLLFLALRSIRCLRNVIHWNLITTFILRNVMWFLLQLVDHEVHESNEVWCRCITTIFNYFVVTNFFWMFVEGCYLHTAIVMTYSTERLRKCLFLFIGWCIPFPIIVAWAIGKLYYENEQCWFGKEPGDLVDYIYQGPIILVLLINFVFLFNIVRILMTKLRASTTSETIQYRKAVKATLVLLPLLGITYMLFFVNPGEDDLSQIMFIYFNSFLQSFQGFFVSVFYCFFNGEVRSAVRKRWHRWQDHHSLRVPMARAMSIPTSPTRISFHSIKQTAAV
T8 sequence (P24387 whole entry): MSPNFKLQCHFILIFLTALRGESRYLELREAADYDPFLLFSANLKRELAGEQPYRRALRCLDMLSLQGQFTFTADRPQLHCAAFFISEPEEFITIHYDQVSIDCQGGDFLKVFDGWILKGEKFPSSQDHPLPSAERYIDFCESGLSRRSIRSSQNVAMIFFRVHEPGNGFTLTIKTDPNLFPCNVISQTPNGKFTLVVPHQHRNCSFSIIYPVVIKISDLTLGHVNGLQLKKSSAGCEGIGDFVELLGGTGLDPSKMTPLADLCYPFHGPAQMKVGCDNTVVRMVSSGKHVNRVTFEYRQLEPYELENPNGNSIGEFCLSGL

[10] = target: Hepatocyte nuclear factor 4-alpha (Homo sapiens, UniProt P41235); assay type: functional, cell-based;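 also: biochemical luminescence-based dose-response counterscreen measuring inhibition of HNF4 dimerization, run alongside a screen for blockers of ABHD5–perilipin-5 interaction; split luciferase complementation of HNF4 fusion proteins in cell lysate measuring dimerization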
[11] = viability loss in CEM21 cells – cell-based, CellTiter-Glo luminescence, cherry-picked, cytotoxicity control for viral fusion inhibitor project, dose response (AID 652042); assay type: functional;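 also: potency for signal decrease meaning cytotoxicity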
[12] = blockers of HIV-1 ZM109 envelope-driven cell-cell fusion – HeLa effector, CEM target cells, luciferase, cherry-pick, dose response (AID 652058); assay type: functional, cell-based;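 also: luciferase signal from HIV-1 Env mediated cell-cell fusion of effector and target cells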
A549 = test: viability loss in A549 cells – cell-based, plate reader, cherry-pick samples, cytotoxicity control, dose response (AID 687028); assay type: functional; conditions: Homo sapiens
cells [13] = assay type: functional, cell-based
cells [14] = assay type: functional, cell-based; remark: listed apart in the source
Paired box protein Pax-8 = Paired box protein Pax-8 (Homo sapiens, UniProt Q06710); test: PAX8 transcriptional activity inhibition in RMG-I – RMG-I cells, luciferase, cherry-pick, dose response (AID 687027); assay type: functional, cell-based;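 also: luciferase reporter driven by Pax8 target thyroperoxidase promoter measured by SteadyGlo luminescence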
[15] = OVCAR8 cell viability loss – plate reader, dry powder samples, PAX8 project, dose response (AID 743197); assay type: functional, cell-based; conditions: OVCAR-8
[16] = Dd2 parasite growth inhibition in erythrocytes – SYBR Green, dry powder samples, set 9, dose response (AID 1159568); assay type: functional, cell-based

Chain of Hepatocyte nuclear factor 4-alpha (P41235 whole entry, the tested form may be a part): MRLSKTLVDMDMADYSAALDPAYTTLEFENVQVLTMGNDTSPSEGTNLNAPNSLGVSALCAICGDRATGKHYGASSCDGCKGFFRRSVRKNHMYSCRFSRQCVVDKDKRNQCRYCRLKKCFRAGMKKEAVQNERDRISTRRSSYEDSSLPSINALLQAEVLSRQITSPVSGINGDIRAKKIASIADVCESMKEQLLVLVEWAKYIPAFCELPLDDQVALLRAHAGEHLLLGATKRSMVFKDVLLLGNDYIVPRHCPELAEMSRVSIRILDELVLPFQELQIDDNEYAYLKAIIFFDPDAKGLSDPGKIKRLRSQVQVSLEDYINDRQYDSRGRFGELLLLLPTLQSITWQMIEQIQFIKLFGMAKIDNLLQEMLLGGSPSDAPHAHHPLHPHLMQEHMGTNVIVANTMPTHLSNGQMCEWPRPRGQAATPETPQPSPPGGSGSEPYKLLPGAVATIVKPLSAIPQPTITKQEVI
Chain of Galanin receptor type 3 (O60755 whole entry): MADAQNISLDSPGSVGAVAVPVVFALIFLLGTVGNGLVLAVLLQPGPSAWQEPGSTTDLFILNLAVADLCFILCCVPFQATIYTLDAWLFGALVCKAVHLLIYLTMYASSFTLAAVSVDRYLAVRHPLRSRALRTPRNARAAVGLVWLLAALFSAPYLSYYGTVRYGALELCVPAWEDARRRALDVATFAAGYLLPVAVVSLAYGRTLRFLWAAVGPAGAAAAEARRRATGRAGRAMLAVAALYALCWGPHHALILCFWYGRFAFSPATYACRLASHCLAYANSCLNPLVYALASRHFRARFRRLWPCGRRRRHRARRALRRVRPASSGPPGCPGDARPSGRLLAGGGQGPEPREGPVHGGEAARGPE
Chain of Beta Lactamase (Q932Y6 whole entry): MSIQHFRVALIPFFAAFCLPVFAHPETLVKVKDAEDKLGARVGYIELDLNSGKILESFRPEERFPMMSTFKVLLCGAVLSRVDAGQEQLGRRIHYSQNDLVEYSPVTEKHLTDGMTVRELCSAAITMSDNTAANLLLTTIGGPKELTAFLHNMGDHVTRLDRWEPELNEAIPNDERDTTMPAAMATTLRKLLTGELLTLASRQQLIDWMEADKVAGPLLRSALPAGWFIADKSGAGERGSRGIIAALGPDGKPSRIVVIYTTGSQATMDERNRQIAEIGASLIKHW
Chain of Paired box protein Pax-8 (Q06710 whole entry): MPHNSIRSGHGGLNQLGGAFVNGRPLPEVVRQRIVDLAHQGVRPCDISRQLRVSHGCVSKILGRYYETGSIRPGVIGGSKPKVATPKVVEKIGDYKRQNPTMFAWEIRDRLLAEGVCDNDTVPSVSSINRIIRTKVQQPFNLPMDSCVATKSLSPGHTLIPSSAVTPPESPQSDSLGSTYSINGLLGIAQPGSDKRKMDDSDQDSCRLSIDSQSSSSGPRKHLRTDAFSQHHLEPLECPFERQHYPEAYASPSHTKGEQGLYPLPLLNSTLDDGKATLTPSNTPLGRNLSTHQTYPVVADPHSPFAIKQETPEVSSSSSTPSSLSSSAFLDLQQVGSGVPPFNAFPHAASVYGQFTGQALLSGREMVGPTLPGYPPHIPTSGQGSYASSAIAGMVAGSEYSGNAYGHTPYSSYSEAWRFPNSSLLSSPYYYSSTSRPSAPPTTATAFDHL

SMILES: CCC(CC)C(=O)Nc1ccc([N+](=O)[O-])cn1
- IC50 (Galanin receptor type 3): > 29.9 µM (inactive)
- EC50 (cells [1]): > 29.9 µM (inactive)

SMILES: N#C/C(=C/c1ccc(-c2ccc(S(N)(=O)=O)cc2)o1)c1nc2ccccc2s1
- IC50 (CHO): 22.1 µM (inactive)
- IC50 (Beta Lactamase): 5.09 µM (active)

SMILES: Cc1cccc(N2C(=O)Cc3ccccc3C2=O)c1
- IC50 [2]: > 100 µM (inactive)
- IC50 [3]: 5.17 µM (active)
- AC50 (Caspase-6): 22.7 µM (active)

SMILES: CCCCC[n+]1ccn(C2=C([N-]S(=O)(=O)c3ccc(Br)cc3)C(=O)c3ccccc3C2=O)c1
- EC50 (Streptokinase A): > 150 µM (not active)
- IC50 [4]: 9.66 µM (active)

SMILES: Oc1ccccc1-c1nc(NCc2ccco2)c2ccccc2n1
- EC50 [5]: > 99 µM (inactive)
- EC50 [6]: > 99 µM (inactive)

SMILES: COc1ccc(N/C=C2/C(=O)N(c3cccc(C)n3)C(=O)c3ccccc32)c(OC)c1
- EC50 [7]: > 300 µM (not active)
- EC50 [8]: 55.4 µM (inconclusive)
- EC50 [5]: > 99 µM (inactive)
- EC50 [6]: 14.5 µM (active)
- EC50 [9]: 8.64 µM (active)

SMILES: CC(C)(C)CN1CCN(Cc2nc(-c3ccc(F)cc3)cs2)CC1CCO (centres undefined)
- IC50 (Galanin receptor type 3): 2.83 µM (active)
- EC50 (cells [1]): > 29.9 µM (inactive)

SMILES: N#Cc1ccccc1OCc1cn(CC(=O)c2ccc(O)cc2)nn1
- IC50 [10]: 6.36 µM (active)

SMILES: C[C@@H]1CN([C@H](C)CO)S(=O)(=O)c2ccc(C#Cc3cccc(F)c3)cc2O[C@@H]1CN(C)C(=O)CN1CCOCC1
- AC50 [11]: 40.3 µM (active)
- AC50 [12]: 899 nM (active)

SMILES: Cc1cccnc1C(NC(=O)C1CCN(CCCc2ccccc2)CC1)c1ccc(Cl)cc1 (centres undefined)
- AC50 (A549): 27.9 µM (active)

SMILES: O=C(O)C1C2CCC(C2)C1C(=O)NCCc1ccccc1 (centres undefined)
- IC50 (cells [13]): > 29.9 µM (inactive)
- EC50 (cells [14]): > 29.9 µM (inactive)

SMILES: CC(C)(C)NC(=O)C(c1ccc(C#N)cc1)n1c(=O)c(-c2ccco2)nc2ccccc21 (centres undefined)
- IC50 [10]: 1.47 µM (active)

SMILES: CS(=O)(=O)N1C[C@@H]2N[C@H](C1)[C@@H]2c1ccc(-c2ccccc2)cc1
- AC50 (A549): 17.7 µM (active)
- AC50 (Paired box protein Pax-8): 4.42 µM (active)
- AC50 [15]: > 60 µM (inactive)
- AC50 [16]: 9.14 µM (active)
